Measured values reported in ChEMBL document CHEMBL4340545, “Identification of potent farnesoid X receptor (FXR) antagonist showing favorable PK profile and distribution toward target tissues: Comprehensive understanding of structure-activity relationship of FXR antagonists” (Bioorg Med Chem, 2019).
pIC50: −log10 of the molar value.

What was measured:
Huh-7 = test: Cytotoxicity against human HuH7 cells assessed as reduction in cell viability incubated for 24 hrs by MTT assay; assay type: cell-based; settings: Huh-7, 24 h
Bile acid receptor [1] = molecular target: T1, Bile acid receptor (Homo sapiens, UniProt Q96RI1); test: Antagonist activity at human FXR expressed in Huh7 cells assessed as inhibition of CDCA-induced FXR response element driven luciferase activity after 24 hrs; assay type: cell-based
T1 sequence (Q96RI1 whole entry): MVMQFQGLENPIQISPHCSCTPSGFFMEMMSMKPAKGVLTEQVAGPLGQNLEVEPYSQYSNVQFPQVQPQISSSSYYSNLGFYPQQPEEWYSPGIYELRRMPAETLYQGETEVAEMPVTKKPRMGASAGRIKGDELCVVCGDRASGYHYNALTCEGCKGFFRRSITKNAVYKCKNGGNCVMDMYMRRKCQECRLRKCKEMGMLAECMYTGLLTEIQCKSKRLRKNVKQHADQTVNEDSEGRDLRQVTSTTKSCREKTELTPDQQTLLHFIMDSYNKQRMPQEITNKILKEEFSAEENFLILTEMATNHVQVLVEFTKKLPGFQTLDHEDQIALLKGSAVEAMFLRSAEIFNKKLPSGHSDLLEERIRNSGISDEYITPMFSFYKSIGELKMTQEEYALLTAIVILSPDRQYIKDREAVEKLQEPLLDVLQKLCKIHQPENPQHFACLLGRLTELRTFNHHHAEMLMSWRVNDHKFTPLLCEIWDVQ

Bile acid receptor [2] = molecular target: T1, Bile acid receptor; test: Antagonist activity at GST-tagged FXR LBD (unknown origin) assessed as inhibition of GW4064-induced fluorecein-labeled SRC2-2 coactivator recruitment by Lanthascreen TR-FRET assay
[3] = Drug concentration in liver of Sprague-Dawley rat at 30 mg/kg, po dissolved in 40% HP-beta-CD measured after 360 mins by LC-MS/MS analysis; assay type: ADME, organism-based; settings: read-out: Drug uptake
[4] = Ratio of drug concentration in ileum to plasma of Sprague-Dawley rat at 30 mg/kg, po dissolved in 40% HP-beta-CD measured after 360 mins by LC-MS/MS analysis; assay type: ADME, organism-based
[5] = Volume of distribution at steady state in Sprague-Dawley rat at 1 mg/ml/kg, iv dissolved in 10% HP-beta-CD; assay type: ADME, organism-based; settings: in vivo, 1 mg/kg, read-out: Vdss
[6] = AUC (0 to 360 mins) in Sprague-Dawley rat at 30 mg/5 ml/kg, po dissolved in 40% HP-beta-CD by trapezoidal method; assay type: ADME, organism-based; set-up: time < 6 hr, dose 5 ml/kg, route oral; settings: in vivo, 30 mg/kg
[7] = Tmax in Sprague-Dawley rat at 30 mg/5 ml/kg, po dissolved in 40% HP-beta-CD; assay type: ADME, organism-based; settings: in vivo, 30 mg/kg
[8] = Ratio of drug concentration in liver to plasma of Sprague-Dawley rat at 30 mg/kg, po dissolved in 40% HP-beta-CD measured after 360 mins by LC-MS/MS analysis; assay type: ADME, organism-based
[9] = AUC (0 to 360 mins) in Sprague-Dawley rat at 1 mg/ml/kg, iv dissolved in 10% HP-beta-CD by LC-MS/MS analysis; assay type: ADME, organism-based; set-up: dose 1 mg/ml/kg, time < 6 hr, route intravenous; settings: in vivo, 1 mg/kg
[10] = Drug concentration in ileum of Sprague-Dawley rat at 30 mg/kg, po dissolved in 40% HP-beta-CD measured after 360 mins by LC-MS/MS analysis; assay type: ADME, organism-based; settings: read-out: Drug uptake
[11] = Drug excretion in Sprague-Dawley rat urine at 1 mg/ml/kg, iv dissolved in 10% HP-beta-CD by LC-MS/MS analysis; assay type: ADME, organism-based; settings: 1 mg/kg, read-out: Drug excretion
[12] = Terminal half life in Sprague-Dawley rat at 1 mg/ml/kg, iv dissolved in 10% HP-beta-CD measured after 60 to 360 min after administration; assay type: ADME, organism-based; settings: in vivo, 1 mg/kg
[13] = Cmax in Sprague-Dawley rat at 30 mg/5 ml/kg, po dissolved in 40% HP-beta-CD; assay type: ADME, organism-based; set-up: dose 5 ml/kg, route oral; settings: in vivo, 30 mg/kg
[14] = Oral bioavailability in Sprague-Dawley rat at 30 mg/5 ml/kg dissolved in 40% HP-beta-CD; assay type: ADME, organism-based; settings: in vivo, 30 mg/kg

Structure (SMILES) | pIC50 (Bile acid receptor [1]) | pIC50 (Bile acid receptor [2]) | pIC50 (Huh-7) | also measured
Cc1ccc2nc([C@H](CC3CCN(C(=O)C(C)C)CC3)N3C(=O)CN(c4ccc(Oc5ccccc5)cc4)C3=O)n(-c3ccc(F)cc3)c2c1 | 6.01 | 5.54 | < 4.00 | 
Cc1ccc2nc([C@H](CC3CCN(C(=O)C(C)C)CC3)NC(=O)Nc3ccc(Oc4ccccc4)cc3)n(C)c2c1 | < 4.70 | < 3.40 | < 4.00 | 
CCN(CC)C(=O)c1ccc(C[C@@H](c2nc3ccc(C)cc3n2C)N2C(=O)CN(c3ccc(Oc4ccccc4)cc3)C2=O)cc1 | 5.96 | 5.55 | < 4.00 | 
Cc1ccc2nc([C@H](CC3CCN(C(=O)C(C)C)CC3)N3CC(=O)N(c4ccc(Oc5ccccc5)cc4)CC3=O)n(C)c2c1 | 6.07 | 4.82 | < 4.00 | 
Cc1ccc2nc([C@H](Cc3ccc(C(N)=O)cc3)N3C(=O)CN(c4ccc(Oc5ccccc5)cc4)C3=O)n(C)c2c1 | 5.20 | 4.56 | < 4.00 | 
Cc1ccc2nc([C@H](CC3CCN(C(=O)C(C)C)CC3)N3CCN(c4ccc(Oc5ccccc5)cc4)C3=O)n(C)c2c1 | 6.10 | 5.32 | < 4.00 | 
Cc1ccc2nc([C@H](CC3CCN(C(=O)C(C)C)CC3)NC(=O)c3ccc(Oc4ccccc4)cc3)n(C)c2c1 | < 4.70 | < 3.40 | < 4.00 | 
Cc1ccc2nc([C@H](Cc3ccc(Cl)cc3)N3C(=O)CN(c4ccc(Oc5ccccc5)cc4)C3=O)n(C)c2c1 | < 4.70 | < 3.40 | < 4.00 | 
Cc1ccc2nc([C@H](Cc3ccc(C(=O)NC(C)C)cc3)N3C(=O)CN(c4ccc(Oc5ccccc5)cc4)C3=O)n(C)c2c1 | 5.57 | 4.41 | < 4.00 | 
Cc1ccc2nc([C@H](Cc3ccccc3)N3C(=O)CN(c4ccc(Oc5ccccc5)cc4)C3=O)n(C)c2c1 | 7.09 | < 3.40 | < 4.00 | 
Cc1ccc2nc([C@H](Cc3ccc(C#N)cc3)N3C(=O)CN(c4ccc(Oc5ccccc5)cc4)C3=O)n(C)c2c1 | 6.11 | 5.15 | < 4.00 | 
Cc1ccc2nc([C@H](CC3CCN(S(=O)(=O)C(C)C)CC3)N3C(=O)CN(c4ccc(Oc5ccccc5)cc4)C3=O)n(C)c2c1 | 7.22 | 3.90 | < 4.00 | 

These reach a higher pIC50 (Bile acid receptor [1]). Values come first.

pIC50 (Bile acid receptor [1]) | pIC50 (Bile acid receptor [2]) | Structure (SMILES) | pIC50 (Huh-7) | also measured
8.03 | 7.57 | Cc1ccc2nc([C@H](CC3CCN(C(=O)C(C)C)CC3)N3C(=O)CN(c4ccc(Oc5ccc(Cl)cc5)cc4)C3=O)n(C)c2c1 | < 4.00 | 
> 12.00 | 8.15 | COc1ccc(Oc2ccc(N3CC(=O)N([C@@H](CC4CCN(C(=O)C(C)C)CC4)c4nc5ccc(C)cc5n4C)C3=O)cc2)cc1 | < 4.00 | concentration at 6 h [3]: 1540 ng/g; Kp at 6 h [4]: 13; Vd [5]: 3.86 L/kg; AUC(0-t) at 6 h [6]: 1580 ng·h/mL; Tmax [7]: 2 h; Kp at 6 h [8]: 15; AUC(0-t) at 6 h [9]: 292 ng·h/mL; concentration at 6 h [10]: 1370 ng/g; dose excreted [11]: 0.23%; half-life [12]: 1.37 h
7.74 | 5.82 | Cc1ccc2nc([C@H](CC3CCN(C(=O)NC(C)C)CC3)N3C(=O)CN(c4ccc(Oc5ccccc5)cc4)C3=O)n(C)c2c1 | < 4.00 | 
8.62 | 6.48 | Cc1ccc2nc([C@H](CC3CCN(C(=O)C(C)C)CC3)N3C(=O)CN(c4ccc(Oc5ccccc5)cc4)C3=O)n(CC(C)C)c2c1 | < 4.00 | 
7.28 | 6.74 | Cc1ccc2nc([C@H](CC3CCN(C(=O)C(C)C)CC3)N3C(=O)CN(c4ccc(OC5CCCCC5)cc4)C3=O)n(C)c2c1 | 4.19 | 
> 12.00 | 7.29 | Cc1ccc2c(c1)nc([C@H](CC1CCN(C(=O)C(C)C)CC1)N1C(=O)CN(c3ccc(Oc4ccccc4)cc3)C1=O)n2C | < 4.00 | 
> 12.00 |  | Cc1ccc2nc([C@H](CC3CCN(C(=O)C(C)C)CC3)N3C(=O)CN(c4ccc(Oc5ccccc5)cc4)C3=O)n(C)c2c1 |  | concentration at 6 h [3]: 225 ng/g; Vd [5]: 8.9 L/kg; AUC(0-t) at 6 h [6]: 146 ng·h/mL; Tmax [7]: 0.5 h; AUC(0-t) at 6 h [9]: 182 ng·h/mL; concentration at 6 h [10]: 135 ng/g; Cmax [13]: 53.4 ng/mL; bioavailability [14]: 2.76%; dose excreted [11]: 0.64%; half-life ([12]; read-out: beta t1/2): 2.07 h
7.39 | 5.57 | Cc1ccc2nc([C@@H](CC3CCN(C(=O)C(C)C)CC3)N3C(=O)CN(c4ccc(Oc5ccccc5)cc4)C3=O)n(C)c2c1 | < 4.00 | 
10.30 | 7.46 | Cc1ccc2nc([C@H](CC3CCN(C(=O)C(C)C)CC3)N3C(=O)CN(c4ccc(Oc5ccc(F)cc5)cc4)C3=O)n(C)c2c1 | < 4.00 | 
